Experiments:
hERG potassium channel = molecular target: T1, hERG potassium channel (Homo sapiens, UniProt Q12809); test: hERG screening assay (PatchXpress patch clamp, CHO cells); type: cell-based; conditions: hERG in CHO cells, peak current at −50 mV; for hERG Patch Clamp hERG % blk 1 μm: 1 μm test compound; for hERG Patch Clamp hERG % blk 10 μm: 10 μm test compound
T1 construct: expressed in transfected cells; host or cells: CHO (Chinese Hamster Ovary)
Protocol: Compounds were screened to test their activity in blocking the hERG potassium channel. The hERG channel is heterologously expressed in a CHO (Chinese Hamster Ovary) cell line. Cells are maintained with standard tissue culture procedures and stable channel expression is maintained with 500 μg/ml G418 in the culture medium. Cells are harvested for testing on the PatchXpress automated patch clamp with Accumax (Innovative Cell Technologies, San Diego, Calif.) to isolate single cells.
The following solutions are used for electrophysiological recordings. The external solution contains: 2 mM CaCl2; 2 mM MgCl2; 4 mM KCl; 150 mM NaCl; 10 mM Glucose; 10 mM HEPES (pH 7.4 with 1M NaOH, osmolarity). The internal solution contains: 140 mM KCl, 10 mM MgCl2, 6 mM EGTA, 5 mM HEPES, 5 mM ATP (pH adjusted to 7.25 with KOH).
hERG channels are activated when the voltage is stepped to +20 mV from the −80 mV holding potential. During a 5 second step at +20 mV, the channels activate and then largely inactivate, so the currents are relatively small. Upon returning to −50 mV from +20 mV, hERG currents transiently become much larger as inactivation is rapidly removed and then the channel closes. The first step to −50 mV for 300 ms is used as a baseline for measuring the peak amplitude during the step to −50 mV after channel activation. The peak current at −50 mV is measured both under control conditions and after addition of compound.
All compounds are prepared as 10 mM DMSO stocks in glass vials. Stock solutions are mixed by vigorous vortexing and sonication for about 2 minutes at room temperature. For testing, compounds are diluted in glass vials using an intermediate dilution step in pure DMSO and then further diluted to working concentrations in external solution. Dilutions are prepared no longer than 20 minutes before use.
After achieving the whole-cell configuration, cells are monitored for 90 seconds to assess stability and washed with external solution for 66 seconds. The voltage protocol described above is then applied to the cells every 12 seconds and throughout the whole procedure. Only cells with stable recording parameters and meeting specified health criteria are allowed to enter the compound addition procedure.
External solution containing 0.1% DMSO (vehicle) is applied to the cells first to establish the control peak current amplitude. After allowing the current to stabilize for 3 to 5 minutes, 1 μM and then 10 μM test compounds are applied. Each compound concentration is added 4 times and cells are kept in test solution until the effect of the compound reaches steady state or for a maximum of 12 minutes. After addition of test compound, a positive control (1 μM Cisapride) is added and must block >95% of the current for the experiment to be considered valid. Washout in the external solution compartment is performed until the recovery of the current reaches steady state. Data are analyzed using DataXpress, Clampfit (Molecular Devices, Inc., Sunnyvale) and Origin 7 (Originlab Corp.)

[1] = molecular target: T2, wild-type human cardiac sodium channel, hNav1.5 (late sodium current) (Homo sapiens, UniProt Q14524); test: Late INa screening assay (PatchXpress whole cell patch clamp); type: cell-based; conditions: HEK293 hNav1.5, late INa generated with 10 μM Tefluthrin (some experiments 50 nM ATX II); for inhibition at 10 µM: 10 μM test compound, read-out: Late INa % blk (10 μM test cmpd); for inhibition at 1 µM: 1 μM test compound, read-out: Late INa % blk (1 μM test cmpd)
T2 construct: host or cells: HEK293
T2 sequence (Q14524 whole entry): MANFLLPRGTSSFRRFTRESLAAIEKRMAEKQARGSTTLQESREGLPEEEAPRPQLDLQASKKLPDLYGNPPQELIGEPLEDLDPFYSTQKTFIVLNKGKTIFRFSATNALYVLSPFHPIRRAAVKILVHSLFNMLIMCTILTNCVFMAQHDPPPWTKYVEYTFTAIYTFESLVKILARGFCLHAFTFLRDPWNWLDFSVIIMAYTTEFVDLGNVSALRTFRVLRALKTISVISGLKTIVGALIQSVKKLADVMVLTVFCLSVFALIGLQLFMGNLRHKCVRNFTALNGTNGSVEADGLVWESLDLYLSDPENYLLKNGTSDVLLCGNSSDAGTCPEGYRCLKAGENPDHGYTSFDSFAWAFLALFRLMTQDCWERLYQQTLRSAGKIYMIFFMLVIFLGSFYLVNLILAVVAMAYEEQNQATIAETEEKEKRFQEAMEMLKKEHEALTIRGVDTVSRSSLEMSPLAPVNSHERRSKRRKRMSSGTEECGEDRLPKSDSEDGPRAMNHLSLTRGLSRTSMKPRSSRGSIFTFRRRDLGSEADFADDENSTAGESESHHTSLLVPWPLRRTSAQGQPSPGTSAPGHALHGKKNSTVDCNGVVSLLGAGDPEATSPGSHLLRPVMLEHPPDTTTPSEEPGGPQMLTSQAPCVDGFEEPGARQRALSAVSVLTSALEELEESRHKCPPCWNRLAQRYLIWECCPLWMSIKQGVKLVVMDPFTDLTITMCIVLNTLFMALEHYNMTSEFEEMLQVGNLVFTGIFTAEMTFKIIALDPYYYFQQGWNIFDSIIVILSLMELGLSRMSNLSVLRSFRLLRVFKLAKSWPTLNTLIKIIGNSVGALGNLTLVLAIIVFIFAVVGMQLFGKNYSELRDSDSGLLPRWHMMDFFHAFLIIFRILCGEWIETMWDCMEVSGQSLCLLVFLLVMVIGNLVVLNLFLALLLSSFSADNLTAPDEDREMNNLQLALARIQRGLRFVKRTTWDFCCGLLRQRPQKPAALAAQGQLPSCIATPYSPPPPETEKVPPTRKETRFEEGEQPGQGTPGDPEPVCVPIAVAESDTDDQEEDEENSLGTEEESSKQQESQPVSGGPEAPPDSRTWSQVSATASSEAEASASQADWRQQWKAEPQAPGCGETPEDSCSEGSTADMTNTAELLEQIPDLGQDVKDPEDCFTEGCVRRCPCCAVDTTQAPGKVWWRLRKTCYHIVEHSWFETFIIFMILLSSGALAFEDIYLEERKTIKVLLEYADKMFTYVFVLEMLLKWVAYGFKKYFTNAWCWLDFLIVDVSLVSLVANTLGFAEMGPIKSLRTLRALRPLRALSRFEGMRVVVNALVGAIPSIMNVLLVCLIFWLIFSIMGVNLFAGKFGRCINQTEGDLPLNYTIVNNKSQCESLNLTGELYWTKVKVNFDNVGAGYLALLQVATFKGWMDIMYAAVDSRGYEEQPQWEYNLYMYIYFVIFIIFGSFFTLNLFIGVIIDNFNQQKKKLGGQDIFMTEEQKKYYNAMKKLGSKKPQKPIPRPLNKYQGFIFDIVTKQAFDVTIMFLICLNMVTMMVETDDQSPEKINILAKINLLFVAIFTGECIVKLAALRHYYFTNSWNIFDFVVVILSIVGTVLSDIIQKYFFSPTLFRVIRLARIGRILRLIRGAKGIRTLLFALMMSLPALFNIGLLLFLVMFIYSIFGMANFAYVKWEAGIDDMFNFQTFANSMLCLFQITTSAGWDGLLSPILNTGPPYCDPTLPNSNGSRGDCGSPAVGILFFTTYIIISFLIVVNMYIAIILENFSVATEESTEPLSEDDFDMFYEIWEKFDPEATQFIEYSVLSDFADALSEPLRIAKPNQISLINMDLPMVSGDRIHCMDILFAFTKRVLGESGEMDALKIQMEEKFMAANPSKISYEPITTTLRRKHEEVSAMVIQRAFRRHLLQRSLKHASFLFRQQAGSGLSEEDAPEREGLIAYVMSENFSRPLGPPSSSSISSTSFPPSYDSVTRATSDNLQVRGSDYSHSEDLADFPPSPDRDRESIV
Procedure, shortened: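 Late sodium current block was assessed by automated whole cell patch clamp on a PatchXpress 7000A using HEK293 cells stably expressing wild-type human hNav1.5 without beta subunits. Late current was induced with 10 μM Tefluthrin or 50 nM ATX II. Channels were stepped from −120 mV to −20 mV for 250 ms at 0.1 Hz at 24-27° C. Current was normalized to 0Na baseline and expressed as percent block.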

T1 sequence (Q12809 whole entry): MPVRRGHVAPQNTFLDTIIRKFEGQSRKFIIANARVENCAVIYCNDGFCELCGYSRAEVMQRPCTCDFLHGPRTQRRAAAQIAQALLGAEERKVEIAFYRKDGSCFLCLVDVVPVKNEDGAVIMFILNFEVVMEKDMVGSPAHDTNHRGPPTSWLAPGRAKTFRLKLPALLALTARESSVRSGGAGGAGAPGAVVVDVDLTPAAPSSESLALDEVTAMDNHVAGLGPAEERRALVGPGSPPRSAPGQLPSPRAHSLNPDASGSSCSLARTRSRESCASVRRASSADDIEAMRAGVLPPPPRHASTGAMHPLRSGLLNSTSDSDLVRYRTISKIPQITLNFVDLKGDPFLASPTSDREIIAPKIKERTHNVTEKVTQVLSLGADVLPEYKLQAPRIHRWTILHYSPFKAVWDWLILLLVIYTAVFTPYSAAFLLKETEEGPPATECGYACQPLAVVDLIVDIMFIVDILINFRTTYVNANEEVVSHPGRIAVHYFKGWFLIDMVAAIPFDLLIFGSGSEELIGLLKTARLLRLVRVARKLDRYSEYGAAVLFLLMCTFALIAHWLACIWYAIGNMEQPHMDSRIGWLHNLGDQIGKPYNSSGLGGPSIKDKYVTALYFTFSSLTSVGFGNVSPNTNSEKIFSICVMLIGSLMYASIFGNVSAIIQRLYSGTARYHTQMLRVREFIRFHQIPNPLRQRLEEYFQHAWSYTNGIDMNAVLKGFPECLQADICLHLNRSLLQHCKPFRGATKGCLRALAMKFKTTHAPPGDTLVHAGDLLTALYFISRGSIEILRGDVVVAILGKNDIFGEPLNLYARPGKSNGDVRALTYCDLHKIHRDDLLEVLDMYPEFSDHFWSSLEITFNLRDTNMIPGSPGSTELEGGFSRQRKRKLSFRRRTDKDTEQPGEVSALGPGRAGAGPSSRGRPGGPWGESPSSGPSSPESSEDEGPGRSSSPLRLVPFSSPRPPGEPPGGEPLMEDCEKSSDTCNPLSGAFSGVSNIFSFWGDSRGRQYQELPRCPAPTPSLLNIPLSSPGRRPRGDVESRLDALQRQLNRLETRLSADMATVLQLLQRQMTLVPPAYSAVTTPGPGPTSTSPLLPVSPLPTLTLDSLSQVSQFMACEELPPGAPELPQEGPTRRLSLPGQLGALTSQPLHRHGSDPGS

Structure (SMILES) | hERG Patch Clamp hERG % blk 1 μm (hERG potassium channel) | hERG Patch Clamp hERG % blk 10 μm (hERG potassium channel) | inhibition at 10 µM [1] | inhibition at 1 µM [1]
CS(=O)(=O)Nc1ccc(-c2ccccc2OC(F)(F)F)c(Cl)c1 [PT-022, N-[2-chloro-2′-(trifluoromethoxy)biphenyl-4-yl]methanesulfonamide] | 10% | 92% | 54.8% | –
Cc1cc(N(Cc2cccc(C(=O)O)c2)S(C)(=O)=O)ccc1-c1ccc(Oc2ccccc2)cc1 [PT-112, 3-{[(2-methyl-4′-phenoxybiphenyl-4-yl)(methylsulfonyl)amino]methyl}benzoic acid] | 10% | 21.5% | 35.5% | –
CCS(=O)(=O)Nc1ccc(-c2ccc(Cl)c(F)c2)c(Cl)c1 [PT-026, N-(2,4′-dichloro-3′-fluorobiphenyl-4-yl)ethanesulfonamide] | 10% | 10% | 78.5% | 33.8%
CS(=O)(=O)Nc1ccc(-c2ccc(C(F)(F)F)cc2)c(Cl)c1 [PT-018, N-[2-chloro-4′-(trifluoromethyl)biphenyl-4-yl]methanesulfonamide] | 10% | 10% | 50.6% | –
CS(=O)(=O)Nc1ccc(-c2cccc(C(F)(F)F)c2)cc1 [PT-001, N-[3′-(trifluoromethyl)biphenyl-4-yl]methanesulfonamide] | 10% | 66% | 58.1% | –
COc1cc(NS(C)(=O)=O)ccc1-c1ccc(Cl)c(F)c1 [PT-003, N-(4′-chloro-3′-fluoro-2-methoxybiphenyl-4-yl)methanesulfonamide] | 10% | 28.3% | 58.3% | 11.2%
O=S(=O)(Nc1ccc(-c2ccc(OC(F)(F)F)cc2)c(Cl)c1)C1CC1 [PT-050, N-[2-chloro-4′-(trifluoromethoxy)biphenyl-4-yl]cyclopropanesulfonamide] | 2% | 47.5% | 61% | –
CS(=O)(=O)Nc1ccc(-c2ccc(Cl)c(F)c2)c(Cl)c1 [PT-017, N-(2,4′-dichloro-3′-fluorobiphenyl-4-yl)methanesulfonamide] | 21% | 80% | 69.5% | 34.8%
O=S(=O)(Nc1ccc(-c2ccc(F)c(Cl)c2)c(Cl)c1)C1CC1 [PT-049, N-(2,3′-dichloro-4′-fluorobiphenyl-4-yl)cyclopropanesulfonamide] | 10% | 32% | 60.1% | –
Cc1cc(N(CC(=O)O)S(C)(=O)=O)ccc1-c1ccc(Oc2ccccc2)cc1 [PT-082, N-(2-methyl-4′-phenoxybiphenyl-4-yl)-N-(methylsulfonyl)glycine] | 10% | 10% | 19.9% | –
O=S(=O)(Nc1ccc(-c2cccc(OC(F)(F)F)c2)c(Cl)c1)C1CC1 [PT-047, N-[2-chloro-3′-(trifluoromethoxy)biphenyl-4-yl]cyclopropanesulfonamide] | 10% | 28.5% | 77.7% | 48.6%
Cc1cc(N(Cc2ccc(C(=O)O)cc2)S(C)(=O)=O)ccc1-c1ccc(Oc2ccccc2)cc1 [PT-108, 4-{[(2-methyl-4′-phenoxybiphenyl-4-yl)(methylsulfonyl)amino]methyl}benzoic acid] | 10% | 10% | 55.6% | –
Cc1cc(NS(C)(=O)=O)ccc1-c1ccc(Oc2ccccc2)cc1 [PT-046, N-(2-methyl-4′-phenoxybiphenyl-4-yl)methanesulfonamide] | 10% | 28.5% | – | –
CS(=O)(=O)Nc1ccc(-c2ccc(C(F)(F)F)cc2)c(C(F)(F)F)c1 [PT-013, N-[2,4′-bis(trifluoromethyl)biphenyl-4-yl]methanesulfonamide] | 10.5% | 29% | 54.1% | –
O=S(=O)(Nc1ccc(-c2cccc(OC(F)(F)F)c2)cc1)C1CC1 [PT-060, N-[3′-(trifluoromethoxy)biphenyl-4-yl]cyclopropanesulfonamide] | 10% | 35.5% | 54.4% | –
Cc1cc(NS(C)(=O)=O)ccc1-c1cccc(OC(F)(F)F)c1 [PT-040, N-[2-methyl-3′-(trifluoromethoxy)biphenyl-4-yl]methanesulfonamide] | 10% | 25% | 68.3% | 32.5%
CS(=O)(=O)Nc1ccc(-c2ccc(Oc3ccccc3)cc2)cc1Cl [PT-034, N-(3-chloro-4′-phenoxybiphenyl-4-yl)methanesulfonamide] | 10% | 10% | 69.7% | 25.9%

— patent publication US8389500B2, “Fused heterocyclic compounds as ion channel modulators” (Gilead Sciences, Inc., priority 2008, dated 2013)
